In brackets after ≈: the same amount, converted by molar mass.

The test system of assay [1] is Culex pipiens L. Briefly: Culex test: mature larvae, loss of 50% of the test animals. It counts as in vivo. To be noted: concentration producing a loss of 50% of the test animals, read-out: Culex test IC-50 eclos. As to the method:
Culex test: The compounds were tested on mature larvae of Culex pipiens. (IC-50 eclos.) in ppm.

For assay [2], the system named is Tenebrio molitor L. Briefly: Tenebrio test: topical application to pupae, inhibition of adult characters. The conditions noted are these: topical in acetone to abdomen of 0.5 to 2 hours old pupae; 27°C, 70% RH; ecdysis 5 to 7 days later; perfect adult 0%, perfect second pupa 100%. It counts as in vivo. As to the method:
The biological tests are examplified by tests on Tenebrio molitor L., Galleria mellonella L. and Culex pipiens L. Tenebrio test: The material in question is applied topically to the abdomen of 0.5 to 2 hours old pupae of the said specimen, as a solution in acetone. The pupae are held at 27°C and 70% RH, ecdysis occuring 5 to 7 days later. The degree of inhibition of adult characters is refered to an arbitrary scale, a morphologically perfect adult given the character 0%, a perfect second pupa 100%.

As for `CC(C)=CCCC(C)=CCON=Cc1ccccc1` [Compound 1, Benzaldoxime-0-geranyl ether], the LC50 in assay [1] was under 1 µg/mL. Besides, in assay [2], the “Tenebrio test ID-50 morph.” value is listed as 0,05 μg/pupa. Regarding `CC(=CCON=Cc1ccccc1)CCC1OC1(C)C` (stereo not drawn) [Compound 2, Benzaldoxime-O-epoxygeranyl ether], the “Tenebrio test ID-50 morph.” value in assay [2] was > 0,1 μg/pupa. Still for that read-out and setting: to `CCC(C)=CCCC(=CCON=Cc1ccccc1)CC` [Compound 4, Benzaldoxime-O-(3-ethyl-7-methyl-2,6-nonadiene-1-yl)-ether] belongs 0,01 μg/pupa. Regarding `CC(C)=CCCC(C)=CCON=Cc1ccc2c(c1)OCO2` [Compound 5, Piperonaloxime-O-geranyl ether], in assay [1], the LC50 came out at 1 µg/mL (≈ 3.32 µM). For the same molecule, the “Tenebrio test ID-50 morph.” value in assay [2] is on record as over 100 μg/pupa. The like results for `CC(C)=CCCC(C)=CCON=Cc1ccc(C)cc1` [Compound 6, p-Tolualdoxime-O-geranyl ether] were, in that order, 10 µg/mL (≈ 36.8 µM) and 50 μg/pupa. Turning to `CC(C)=CCCC(C)=CCON=Cc1cccnc1` [Compound 7, 3-Pyridinealdoxime-O-geranyl ether], the “Tenebrio test ID-50 morph.” value in assay [2] was determined as 10 μg/pupa.

For the molecule `CC(C)=CCCC(C)CCON=Cc1ccccc1` (stereo not drawn) [Compound 8, Benzaldoxime-O-citronellyl ether], the LC50 in assay [1] was under 10 µg/mL. Also, the “Tenebrio test ID-50 morph.” value in assay [2] is over 100 μg/pupa. For `CCC(C)=CCON=Cc1ccc2c(c1)OCO2` [Compound 9, Piperonaloxime-O-(3-methyl-2-pentene-1-yl)-ether] the same measures were 0.02 µg/mL (≈ 0.0809 µM) and 10 μg/pupa.

As to `CCC(C)=CCON=Cc1ccccc1` [Compound 10, Benzaldoxime-O-(3-methyl-2-pentene-1-yl)-ether], the LC50 in assay [1] is 1 µg/mL (≈ 4.92 µM). The “Tenebrio test ID-50 morph.” value in assay [2] was over 100 μg/pupa. Take `CCC(C)=CCCON=Cc1ccc2c(c1)OCO2` [Compound 11, Piperonaloxime-O-(4-methyl-3-hexene-1-yl)-ether]: the LC50 in assay [1] was determined as 0.5 µg/mL (≈ 1.91 µM). For the same molecule, the “Tenebrio test ID-50 morph.” value in assay [2] was over 100 μg/pupa. With `CCC(C)=CCCON=Cc1ccccc1` [Compound 12, Benzaldoxime-O-(4-methyl-3-hexene-1-yl)-ether], in assay [1], the LC50 is under 10 µg/mL. Moreover, the “Tenebrio test ID-50 morph.” value in assay [2] is over 100 μg/pupa.

Take `CC(C)=CCCC(C)=CCON=CCO` [Compound 13, Glycollicaldoxime-O-geranyl ether]: the LC50 in assay [1] was 10 µg/mL (≈ 47.3 µM). For the same molecule, the “Tenebrio test ID-50 morph.” value in assay [2] was 50 μg/pupa. For `CCOC(=O)C=NOCC=C(C)CCC=C(C)C` [Compound 14, Glyoxylic acid ethylester aldoxime-O-geranyl ether] the same measures were 1 µg/mL (≈ 3.95 µM) and 1 μg/pupa. As for `CCOC(=O)C=NOCC=C(C)CCC1OC1(C)C` (stereo not drawn) [Compound 15, Glyoxylic acid ethylester aldoxime-O-(epoxygeranyl)-ether], the LC50 in assay [1] was 1 µg/mL (≈ 3.71 µM). Further, in assay [2], the “Tenebrio test ID-50 morph.” value stood at 1 μg/pupa. For `CCOC(=O)C=NOCC=C(C)CCCC(C)(C)OCC` [Compound 16, Glyoxylic acid ethylester aldoxime-O-(7-ethoxy-geranyl)-ether] the same measures were 1 µg/mL (≈ 3.34 µM) and 1 μg/pupa.

(Values after patent US3941777A, “Compounds having juvenile hormone activity” (A/S Cheminova, priority 1973, dated 1976).)
